Assays:
[1] = biological target: T1, GlbB (Caldimonas brevitalea, UniProt A8KCI8); experiment: steady-state kinetics of hydroxylation; assay type: biochemical; settings: Fe(II)/alpha-ketoglutarate-dependent C4 hydroxylation
T1 sequence (A8KCI8 1-286): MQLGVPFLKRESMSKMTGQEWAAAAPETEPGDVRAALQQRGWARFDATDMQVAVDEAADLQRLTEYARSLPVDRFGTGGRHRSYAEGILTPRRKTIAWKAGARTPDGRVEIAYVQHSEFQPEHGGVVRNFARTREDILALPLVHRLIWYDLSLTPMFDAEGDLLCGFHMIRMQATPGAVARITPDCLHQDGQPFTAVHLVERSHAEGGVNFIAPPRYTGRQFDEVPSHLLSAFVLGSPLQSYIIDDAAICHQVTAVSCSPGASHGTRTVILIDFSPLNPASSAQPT

[2] = biological target: T1, GlbB; experiment: steady-state kinetics of oxidation; assay type: biochemical; settings: Fe(II)/alpha-ketoglutarate-dependent; product is the sulfoxide

Row | SMILES | KM [1] | KM [2]
1 | CC(C)C[C@H](N)C(=O)O [L-Leu] | steady-state kinetic parameters were obtained for hydroxylation of L-Lys, L-Leu, and L-Met (Figure S5) | 
2 | CSCC[C@H](N)C(=O)O [L-Met] |  | steady-state kinetic parameters were obtained for hydroxylation of L-Lys, L-Leu, and L-Met (Figure S5)
3 | NCCCC[C@H](N)C(=O)O [compound 3, L-Lys] | steady-state kinetic parameters were obtained for hydroxylation of L-Lys, L-Leu, and L-Met (Figure S5) | 

— publication PMC6374188 (Organic & biomolecular chemistry, 2019)
